Here are results for 3 molecules from patent US20100273144A1, “NOVEL USE OF GRP 94 IN VIRUS INFECTION” (priority 2008, published 2010).

For experiment [1], the target named is T1, IKKα/β (Homo sapiens, UniProt O14920+O15111).
T1 construct: were monitored using GRP94-overexpressing and control cell lines; endogenous in cells; host or cells: Huh-7 cells stably carrying pCDNA3.1 (control) or pCDNA3.1-GRP94
The experiment can be described thus: Effect of BAY11-7082 on expression of NF-κB-related survival genes, Western-blot, control and GRP94-overexpressing cells. The experiment is classed as cell-based. Further details: dose or concentration left out as unconfirmed. The protocol: Western-blot analysis—Proteins were resolved by 8% or 13.5% SDS-PAGE and transferred to nitrocellulose membranes (Amersham). The membranes were blocked overnight with 5% skimmed milk in Tris-buffered saline (TBS) [20 mM Tris-HCl (pH 7.5), 150 mM NaCl, 0.5% Tween-20] and then incubated with monoclonal antibodies against actin (1:5000), GRP94 (1:1000), Hsp90 (1:1000), TRAF2 (1:500), XIAP (1:1000), survivin (1:500), glyceraldehyde-3-phosphate dehydrogenase (GAPDH) (1:5000) and IKKα/β for 5 hours. A monoclonal anti-human actin antibody was used as a control. […]
The inventors tried to determine the stage of the signaling cascade at which NF-κB is activated by GRP94. […] The effects of BAY11-7082, a specific inhibitor of IKKα/β, on the expression of NF-κB-related gene products were monitored using GRP94-overexpressing and control cell lines, and the obtained results are shown in FIG. 4B. […] Effect of abrogation of IKKα/β activity by BAY11-7082 on the expression of NF-κB-related survival genes was monitored by Western-blot analysis; lanes 2 and 4 show results with and lanes 1 and 3 show results without treatment of the drug […] for 4 hrs on control (lanes 1 and 2) and GRP94-overexpressing (lanes 3 and 4) cells.

The subject of experiment [2] is IκBα. The experiment is described as follows: Time-course analysis of IκBα levels after TNF-α treatment, Western-blot, Huh-7 cells with or without HCV replicons. The format is cell-based. The conditions noted are these: TNF-α 10 ng/ml. The protocol:
Western-blot analysis—Proteins were resolved by 8% or 13.5% SDS-PAGE and transferred to nitrocellulose membranes (Amersham). The membranes were blocked overnight with 5% skimmed milk in Tris-buffered saline (TBS) [20 mM Tris-HCl (pH 7.5), 150 mM NaCl, 0.5% Tween-20] and then incubated with monoclonal antibodies against actin (1:5000), GRP94 (1:1000), Hsp90 (1:1000), TRAF2 (1:500), XIAP (1:1000), survivin (1:500), glyceraldehyde-3-phosphate dehydrogenase (GAPDH) (1:5000) and IKKα/β for 5 hours. A monoclonal anti-human actin antibody was used as a control. Horseradish-peroxidase-conjugated anti-mouse, anti-goat or anti-rabbit immunoglobulin Gs (IgGs) were used as secondary antibodies (1:5000), and bands were visualized by enhanced chemiluminescence (ECL) according to the manufacturer's instructions (Amersham).
The protein level of IκBα in control Huh-7 cells, Huh-7 cells containing replicons FK-E1 (UAA), and FK-E2(UAA) were measured by Western-blot assays with time; this is because the phosphorylation-dependent degradation of IκBs is an essential step for NF-κB activation after TNF-α treatment. […] Within 5 minutes of TNF-α treatment, IκBα proteins were not detected in the control Huh-7 cells (FIG. 1C). In Huh-7 cells containing the replicon FK-E1(UAA) that expresses NS3-5B, core and E1 proteins, the degradation of IκBα was delayed by up to 10 minutes after treatment with TNF-α (FIG. 1C).
Background: Replicon systems follow genome replication, usually without infectious particles.

Experiment [3] concerns NF-κB. The experiment is described as follows: NF-κB reporter assay (firefly luciferase under NF-κB response element) in 293T cells. The format is cell-based. The conditions noted are these: 10 ng TNF-α for 12 hours, vs mock-treated. As to the method:
(§1) Luciferase assay—Luciferase assays were performed using a luciferase assay kit (Promega), according to the manufacturer's instructions. The luciferase activities in the cells were normalized by the protein concentrations, as determined by the Bradford assay.
The activation of NF-κB by overproduction of GRP94 was investigated by measuring the activity of a reporter gene (firefly luciferase) under the control of the […] response element (FIG. 4A). […] 293T cells were transfected with pNF-κB-Luc, which encodes the firefly luciferase gene under the control of a NF-κB response element, with control vector plasmid (pCDNA3.1) (lane 3) or with the plasmid pCDNA3.1-GRP94, which produces. GRP94 (lane 4). Control plasmid pRLCMV-Luc (Promega) was also cotransfected to normalize transfection efficiency. After incubation of the cells for 48 hours, cells were further incubated in serum-free medium for 6 hours, mock-treated (lane 1), or treated with 10 ng TNF-α for 12 hours (lane 2), before luciferase activities were measured. Three independent experiments were performed and the relative values (TNF-α-treated vs mock-treated, and GRP94-overexpressed vs mock-expressed) are shown.
(In general: Reporter assays use an easily measured gene product as a stand-in for the process of interest.)

The test system of experiment [4] is HCV strain JFH 5a-Rluc. The experiment can be described thus: HCV infectivity assessed by luciferase activity of JFH 5a-Rluc in Huh-7 cells. The format is cell-based, hepatitis C virus. The following applies: siRNA 48 hours before infection, TRAIL 18 hours after 24 hours infection. As to the method: as §1
To confirm that the anti-apoptotic activity of E2 is induced by GRP94 and NF-κB-related gene products in HCV-infected cells, the levels of GRP94, XIAP, TRAF2, FLIP and Bcl-xL were monitored using a HCV-infection system. The infectious JFH1 strain of HCV (Wakita T, Pietschmann T, Kato T, Date T, Miyamoto M, Zhao Z, Murthy K, et al. Production of infectious hepatitis C virus in tissue culture from a cloned viral genome. Nat Med 2005; 11:791-796) and a JFH1 derivative known as JFH5a-Rluc with a reporter gene (Renilla luciferase) in the NS5A of HCV (FIG. 6A) that is suitable for quantification of HCV infection (Kim C S, Jung J H, Wakita T, Yoon S K, Jang S K. Monitoring the Antiviral Effect of Alpha Interferon on Individual Cells. J. Virol. 2007; 81:8814-8820) were used. […]
Huh-7 cells were transfected with a control siRNA (lanes 1, 2, 5 and 6) and a siRNA against GRP94 (lanes 3, 4, 7 and 8) and incubated for 48 hours. […] The levels of PARP, GRP94 and actin were monitored by Western-blot analysis. The HCV infectivity levels were assessed by measuring luciferase activities. […]

The test system of experiment [5] is control, GRP94-overexpressing and E2-expressing cells. The experiment can be described thus: TRAIL-induced apoptosis monitored by cleavage of PARP (Western-blot) in control, GRP94-overexpressing and E2-expressing cells. The format is cell-based. The conditions noted are these: 200 ng/ml TRAIL for 2 hours. From the text: The role of GRP94 in inhibition of apoptosis during HCV infection was investigated using a siRNA against GRP94 and a control siRNA, the GRP94-overexpressing, and the E2-expressing cell lines (FIG. 5). The strong apoptosis inducer TRAIL was used to mimic the physiological conditions of a virus infection that induces TRAIL expression. Cleavage of PARP, which is a substrate of activated caspase-3/7, was used to monitor the process of apoptosis. The obtained results were shown in FIG. 5, wherein control (lanes 1-4), GRP94-overexpressing (lanes 5-8), and E2-expressing (lanes 9-12) cells were mock-treated (lanes 1, 3, 5, 7, 9 and 11) or treated with 200 ng/ml TRAIL (lanes 2, 4, 6, 8, 10 and 12) for 2 hours after treatment with a control siRNA (lanes 3, 4, 7, 8, 11 and 12) or a siRNA against GRP94 (lanes 1, 2, 5, 6, 9 and 10). The levels of uncleaved PARP, GRP94, HCV E2 and actin were monitored by Western-blot analysis.

For experiment [6], the system named is HCV-infected Huh-7 cells. The experiment can be described thus: TRAIL-induced PARP cleavage in mock-infected and HCV (JFH 5a-Rluc)-infected Huh-7 cells. The experiment is classed as cell-based. The following applies: TRAIL for 18 hours. The protocol:
Huh-7 cells were transfected with a control siRNA (lanes 1, 2, 5 and 6) and a siRNA against GRP94 (lanes 3, 4, 7 and 8) and incubated for 48 hours. The siRNA-treated cells were mock-infected (lanes 1-4) or infected with HCV (JFH 5a-Rluc) (lanes 5-8) and incubated for 24 hours. After infection, the cells were mock-treated (lanes 1, 3, 5 and 7) or treated with TRAIL (lanes 2, 4, 6 and 8) for 18 hours. These cells were used to monitor protein levels (upper panel) and virus infection (lower panel). The levels of PARP, GRP94 and actin were monitored by Western-blot analysis. The HCV infectivity levels were assessed by measuring luciferase activities. Experiments were performed six times with triplicate samples each, and mean and standard deviation values of the experiments are shown as columns and lines, respectively.

T1 sequence (O15111 whole entry): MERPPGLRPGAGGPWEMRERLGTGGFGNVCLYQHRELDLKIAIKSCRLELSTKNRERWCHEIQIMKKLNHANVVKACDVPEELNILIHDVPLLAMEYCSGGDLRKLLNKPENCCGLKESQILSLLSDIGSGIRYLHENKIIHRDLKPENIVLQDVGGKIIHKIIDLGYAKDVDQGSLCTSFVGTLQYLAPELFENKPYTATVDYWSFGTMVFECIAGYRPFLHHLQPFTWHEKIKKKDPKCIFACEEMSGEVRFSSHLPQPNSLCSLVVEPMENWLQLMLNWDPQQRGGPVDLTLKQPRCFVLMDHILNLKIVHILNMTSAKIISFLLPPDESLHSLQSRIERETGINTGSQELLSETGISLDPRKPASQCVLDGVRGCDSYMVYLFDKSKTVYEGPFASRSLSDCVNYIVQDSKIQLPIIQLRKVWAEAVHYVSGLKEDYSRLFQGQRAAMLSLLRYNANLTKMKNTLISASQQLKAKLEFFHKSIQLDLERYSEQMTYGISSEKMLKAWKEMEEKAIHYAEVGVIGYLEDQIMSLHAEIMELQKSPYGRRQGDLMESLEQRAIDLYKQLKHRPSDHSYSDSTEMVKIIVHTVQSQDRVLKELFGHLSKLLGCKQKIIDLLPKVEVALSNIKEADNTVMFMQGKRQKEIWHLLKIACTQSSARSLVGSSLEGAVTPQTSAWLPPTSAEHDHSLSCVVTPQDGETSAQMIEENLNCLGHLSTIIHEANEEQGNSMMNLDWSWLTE
T1 sequence (O14920 whole entry): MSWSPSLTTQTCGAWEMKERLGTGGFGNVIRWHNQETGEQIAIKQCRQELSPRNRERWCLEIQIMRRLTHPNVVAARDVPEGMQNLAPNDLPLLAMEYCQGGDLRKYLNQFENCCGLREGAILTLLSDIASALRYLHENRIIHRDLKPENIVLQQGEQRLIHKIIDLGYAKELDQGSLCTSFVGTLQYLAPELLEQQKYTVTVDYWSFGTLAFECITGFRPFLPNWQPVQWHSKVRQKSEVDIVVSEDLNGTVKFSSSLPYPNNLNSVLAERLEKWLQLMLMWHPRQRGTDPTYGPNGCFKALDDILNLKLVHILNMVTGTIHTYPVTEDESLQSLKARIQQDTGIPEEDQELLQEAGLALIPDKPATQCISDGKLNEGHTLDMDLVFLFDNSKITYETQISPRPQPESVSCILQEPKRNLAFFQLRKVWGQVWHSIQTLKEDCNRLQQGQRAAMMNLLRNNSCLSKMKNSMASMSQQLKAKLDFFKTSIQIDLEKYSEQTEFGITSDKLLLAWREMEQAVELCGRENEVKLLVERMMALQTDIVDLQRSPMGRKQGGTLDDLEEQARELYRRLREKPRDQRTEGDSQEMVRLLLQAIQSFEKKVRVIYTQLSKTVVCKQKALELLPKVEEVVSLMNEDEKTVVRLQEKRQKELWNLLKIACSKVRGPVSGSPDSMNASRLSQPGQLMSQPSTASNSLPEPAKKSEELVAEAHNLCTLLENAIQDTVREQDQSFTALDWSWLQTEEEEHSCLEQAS
T1 sequence (Q9Y6K9 whole entry partner): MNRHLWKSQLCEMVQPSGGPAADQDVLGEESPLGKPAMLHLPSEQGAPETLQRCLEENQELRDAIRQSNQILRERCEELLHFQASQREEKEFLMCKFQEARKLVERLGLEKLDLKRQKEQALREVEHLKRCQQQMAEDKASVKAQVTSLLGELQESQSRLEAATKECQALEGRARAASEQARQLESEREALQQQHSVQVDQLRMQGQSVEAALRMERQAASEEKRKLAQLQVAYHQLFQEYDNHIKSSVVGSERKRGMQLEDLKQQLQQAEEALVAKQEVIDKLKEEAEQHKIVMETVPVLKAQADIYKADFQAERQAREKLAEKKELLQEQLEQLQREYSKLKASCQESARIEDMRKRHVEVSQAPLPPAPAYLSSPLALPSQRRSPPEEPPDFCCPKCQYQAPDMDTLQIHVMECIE

On to `Cc1ccc(S(=O)(=O)/C=C/C#N)cc1` [BAY11-7082], for which, in experiment [1], the “levels of GRP94 protein” value is listed as “reduced”. Moreover, the “levels of XIAP, TRAF2, survivin, and IKKα/β” value in experiment [1] (GRP94-expressing and control cells) is “markedly reduced”.

Consider tumor necrosis factor (TNF)-α [TNF-α], for which the “time after TNF-α treatment at which residual IκBα proteins were not detected” value in experiment [2] (FK-E2(UAA)-containing Huh-7 cells) was at most 5 min. In addition, the “delay of degradation of IκBα after treatment with TNF-α” value in experiment [2] (Huh-7 cells containing replicon FK-E1(UAA)) was “up to 10 minutes”. Moreover, the “time after TNF-α treatment at which IκBα proteins were not detected” value in experiment [2] (control Huh-7 cells) was at most 5 min. In addition, the “increase in NF-κB reporter activity” value in experiment [3] was “about 10 fold”.

B1: tumor necrosis-related apoptosis-inducing ligand (protein, UniProt P50591 1-281, looked up)
Tumor necrosis factor ligand …: MAMMEVQGGPSLGQTCVLIVIFTVLLQSLCVAVTYVYFTNELKQMQDKYSKSGIACFLKEDDSYWDPNDEESMNSPCWQVKWQLRQLVRKMILRTSEETISTVQEKQQNISPLVRERGPQRVAAHITGTRGRSNTLSSPNSKNEKALGRKINSWESSRSGHSFLSNLHLRNGELVIHEKGFYYIYSQTYFRFQEEIKENTKNDKQMVQYIYKYTSYPDPILLMKSARNSCWSKDAEYGLYSIYQGGIFELKENDRIFVSVTNEHLIDMDHEASFFGAFLVG
With B1, the “reduction of infectivity of HCV” value in experiment [4] is “about 20%”. Besides, the “cleavage of PARP” value in experiment [5] (GRP94-overexpressing and HCV-E2-expressing cells) was “blocked”; in experiment [5] (control cells, with control siRNA or GRP94 siRNA), “observed”; in experiment [6] (mock-infected Huh-7 cells), “observed”. Also, the “levels of PARP cleavage” value in experiment [6] (HCV-infected Huh-7 cells) was “almost no reductions”.
